The pKi is −log10 of the Ki, conventionally taken in molar units. In general, inhibition refers to the relative decrease from the control value, in per cent.

SMILES strings stand for the structures. pKi: −log10 of the molar value.

Assay [1] has as its target T1, Prostaglandin D2 receptor 2 (Homo sapiens, UniProt Q9Y5Y4).
T1 sequence (Q9Y5Y4 whole entry): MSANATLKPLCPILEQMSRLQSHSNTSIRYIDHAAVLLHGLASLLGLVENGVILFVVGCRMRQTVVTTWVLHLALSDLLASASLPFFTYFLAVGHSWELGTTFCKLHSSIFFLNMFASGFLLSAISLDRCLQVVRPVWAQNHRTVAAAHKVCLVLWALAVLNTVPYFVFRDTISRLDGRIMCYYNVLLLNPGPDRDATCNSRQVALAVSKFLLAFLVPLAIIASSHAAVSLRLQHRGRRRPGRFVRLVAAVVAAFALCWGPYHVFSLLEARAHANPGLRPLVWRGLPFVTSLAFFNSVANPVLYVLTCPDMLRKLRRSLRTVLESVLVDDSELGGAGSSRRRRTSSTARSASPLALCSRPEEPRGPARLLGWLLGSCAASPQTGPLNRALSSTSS
Briefly: Binding affinity to human prostaglandin D2 receptor by cell based radioligand displacement assay. A general note: Displacement assays read how much labelled ligand stays bound in the presence of the test substance.

Assay [2] addresses T2, Prostaglandin D2 receptor (Homo sapiens) (UniProt Q13258).
T2 sequence (whole entry): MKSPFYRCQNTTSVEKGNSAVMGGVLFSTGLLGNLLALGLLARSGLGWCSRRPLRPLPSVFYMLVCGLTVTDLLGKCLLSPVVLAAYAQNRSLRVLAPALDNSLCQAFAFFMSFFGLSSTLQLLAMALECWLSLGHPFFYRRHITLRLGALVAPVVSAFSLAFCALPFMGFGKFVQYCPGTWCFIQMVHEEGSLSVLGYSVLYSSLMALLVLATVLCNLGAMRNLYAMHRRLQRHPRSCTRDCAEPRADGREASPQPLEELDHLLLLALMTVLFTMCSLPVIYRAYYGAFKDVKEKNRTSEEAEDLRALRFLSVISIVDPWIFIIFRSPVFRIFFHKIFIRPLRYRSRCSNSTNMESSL
Briefly: Binding affinity to human prostaglandin D1 receptor at 10 uM by radioligand displacement assay.

Assay [3] addresses T3, Thromboxane A2 receptor (Homo sapiens, UniProt P21731).
T3 sequence (P21731 whole entry): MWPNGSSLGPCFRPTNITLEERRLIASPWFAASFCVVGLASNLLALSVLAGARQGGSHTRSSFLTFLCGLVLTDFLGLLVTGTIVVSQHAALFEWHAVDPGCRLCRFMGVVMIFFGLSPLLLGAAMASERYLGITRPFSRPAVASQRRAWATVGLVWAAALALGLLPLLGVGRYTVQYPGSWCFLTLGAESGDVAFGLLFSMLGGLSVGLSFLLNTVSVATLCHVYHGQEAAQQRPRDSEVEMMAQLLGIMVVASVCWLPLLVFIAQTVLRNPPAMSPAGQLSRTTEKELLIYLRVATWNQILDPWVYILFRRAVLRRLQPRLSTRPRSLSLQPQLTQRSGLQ
Kind of assay: Binding affinity to human thromboxane A2 receptor by radioligand displacement assay.

The target of assay [4] is T1, Prostaglandin D2 receptor 2. Kind of assay: Antagonist activity at human prostaglandin D2 receptor assessed as inhibition of PGD2-induced receptor activation by cell based FLIPR assay. The class given is functional.
Assay [5] concerns the target T4, Thromboxane A2 receptor (Homo sapiens) (UniProt P21731).
T4 sequence (whole entry): T3 sequence (P21731 whole entry)
Kind of assay: Binding affinity to human thromboxane A2 receptor at 10 uM by radioligand displacement assay.

For the compound `Cc1noc(C)c1CN1C(c2c(C)n(CC(=O)O)c3ccccc23)CCS1(=O)=O` (racemic), the pKi in assay [1] was 7.64.
Take `Cc1ccc2c(c1)c(C1NS(=O)(=O)c3ccccc31)c(C)n2CC(=O)O` (racemic): the pKi in assay [1] is 5.82.
Consider `Cc1noc(C)c1CN1C(c2cn(CC(=O)O)c3ccccc23)c2ccccc2S1(=O)=O` (racemic), for which the pKi in assay [1] was 7.74.
The same measure, in the same setting: the same measure for `Cc1c(C2NS(=O)(=O)c3ccccc32)c2cc(Cl)ccc2n1CC(=O)O` (racemic): 6.16.
Take `Cc1c(C2c3ccccc3S(=O)(=O)N2CCOc2ccc(Cl)cc2)c2ccccc2n1CC(=O)O` (racemic): the inhibition in assay [2] is 28%. In addition, the pKi is 5.47 in assay [3] and 7.46 in assay [1].
In the case of `O=C(O)Cn1cc(C2NS(=O)(=O)c3ccccc32)c2ccccc21` (racemic), in assay [1], the pKi is 5.04.
Turning to `Cc1ccc2c(c1)c(C1NS(=O)(=O)c3ccccc31)cn2CC(=O)O` (racemic), in assay [1], the pKi is 5.54.
`O=C(O)Cn1cc(C2NS(=O)(=O)c3ccccc32)c2cc(Cl)ccc21` (racemic): in assay [1], the pKi is 5.54.
Still for that read-out and setting: the figure for `Cc1c(C2c3ccccc3S(=O)(=O)N2CCCOc2ccccc2)c2ccccc2n1CC(=O)O` (racemic) is 5.85.
Take `Cc1noc(C)c1CN1C(c2c(C)n(CC(=O)O)c3ccccc23)c2ccccc2S1(=O)=O` (racemic): the inhibition in assay [2] and in assay [5] was 0% each time. In addition, the pKi was 7.92 in assay [1] and 7.55 in assay [4].
For the compound `Cc1noc(-c2ccccc2)c1CN1C(c2c(C)n(CC(=O)O)c3ccccc23)c2ccccc2S1(=O)=O` (racemic), in assay [1], the pKi was 7.89.
For `Cc1noc(C)c1CN1C(c2c(C)n(CC(=O)O)c3ccc(Cl)cc23)c2ccccc2S1(=O)=O` (racemic), the inhibition in assay [2] worked out at 15%; in assay [5] it was 0%. Besides, in assay [1], the pKi was 8.10.
As to `Cc1c(C2c3ccccc3S(=O)(=O)N2CCc2ccccc2)c2ccccc2n1CC(=O)O` (racemic), the pKi in assay [1] was 6.66.
As to `Cc1c(C2c3ccccc3S(=O)(=O)N2CCOc2ccccc2)c2ccccc2n1CC(=O)O` (racemic), in assay [2], the inhibition was 0%. Moreover, the pKi in assay [3] was 5.11; in assay [1], 7.54.
Compound `Cc1noc(C)c1CN1C(C)(c2c(C)n(CC(=O)O)c3ccccc23)c2ccccc2S1(=O)=O` (racemic) showed a pKi in assay [1] of 7.42.
In turn, `O=C(O)Cn1cc(C2c3ccccc3S(=O)(=O)N2CCc2ccccc2)c2ccccc21` (racemic) gave a pKi in assay [1] of 6.20.
`Cc1c(C2c3ccccc3S(=O)(=O)N2CCC(C)C)c2ccccc2n1CC(=O)O` (racemic) had a pKi in assay [1] of 6.25.
`Cc1c(C2c3ccccc3S(=O)(=O)N2C(C)C)c2ccccc2n1CC(=O)O` (racemic) had a pKi in assay [1] of 6.04.
For `Cc1c(C2c3ccccc3S(=O)(=O)N2c2ccccc2)c2ccccc2n1CC(=O)O` (racemic), the pKi in assay [1] is 6.32.
`Cc1c(C2NS(=O)(=O)c3ccccc32)c2cc(F)ccc2n1CC(=O)O` (racemic) had a pKi in assay [1] of 6.37.
Compound `CN1C(c2cn(CC(=O)O)c3ccccc23)c2ccccc2S1(=O)=O` (racemic) showed a pKi in assay [1] of 5.09.
Turning to `O=C(O)Cn1cc(C2c3ccccc3S(=O)(=O)N2Cc2ccccc2)c2ccccc21` (racemic), in assay [1], the pKi was 5.96.
For the compound `N#Cc1ccc2c(c1)c(C1NS(=O)(=O)c3ccccc31)cn2CC(=O)O` (racemic), in assay [1], the pKi was 5.70.
Same read-out and setting: the same measure for `Cc1c(C2NS(=O)(=O)c3ccccc32)c2ccccc2n1CC(=O)O` (racemic): 5.55; for `Cc1c(C2c3ccccc3S(=O)(=O)N2CCO)c2ccccc2n1CC(=O)O` (racemic): 5.85.
In assay [1], `CC(C)CCN1C(c2cn(CC(=O)O)c3ccccc23)c2ccccc2S1(=O)=O` (racemic) gave a pKi of 5.64.

These data come from ChEMBL document CHEMBL1155509, “3-Indolyl sultams as selective CRTh2 antagonists” (Bioorg Med Chem Lett, 2010).
